How the values were obtained:
MC3 [1] = biological target: T1, MC3 (Homo sapiens, UniProt P41968); assay: Stimulation of cAMP, MC3; assay type: cell-based
Experimental: (§1) Test 3. cAMP The stimulation of cAMP was carried out essentially as described by Schiöth et al, Br J Pharmacol 1998; 124; 75-82.

MC1-Receptor = MC1-Receptor (Mus musculus, UniProt Q01727); assay: Affinity for the MC1-receptor, binding assay with I125-NDP-αMSH as ligand; settings: read-out: Affinity for MC-receptors Ki MC1
Experimental: Test 1. Affinity for the MC1-Receptor
The binding assay was carried out essentially as described by Lunec et al, Melanoma Res 1992; 2; 5-12, using I^125-NDP-αMSH as ligand.

MC1 = MC1 (Homo sapiens, UniProt Q01726); assay: Stimulation of cAMP, MC1; assay type: cell-based
MC1, sequence (Q01726 whole entry): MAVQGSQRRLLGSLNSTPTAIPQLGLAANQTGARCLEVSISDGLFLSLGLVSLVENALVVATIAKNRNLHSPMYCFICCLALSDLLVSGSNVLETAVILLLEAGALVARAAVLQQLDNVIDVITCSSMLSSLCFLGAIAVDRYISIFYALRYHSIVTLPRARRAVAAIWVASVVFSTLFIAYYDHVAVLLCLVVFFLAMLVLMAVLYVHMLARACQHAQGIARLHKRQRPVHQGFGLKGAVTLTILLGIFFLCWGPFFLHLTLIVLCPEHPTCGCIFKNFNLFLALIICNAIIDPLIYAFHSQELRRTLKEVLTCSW
Experimental: as §1

MC4 [2] = biological target: T2, MC4 (Homo sapiens, UniProt P32245); assay: Stimulation of cAMP, MC4; assay type: cell-based
T2 sequence (P32245 whole entry): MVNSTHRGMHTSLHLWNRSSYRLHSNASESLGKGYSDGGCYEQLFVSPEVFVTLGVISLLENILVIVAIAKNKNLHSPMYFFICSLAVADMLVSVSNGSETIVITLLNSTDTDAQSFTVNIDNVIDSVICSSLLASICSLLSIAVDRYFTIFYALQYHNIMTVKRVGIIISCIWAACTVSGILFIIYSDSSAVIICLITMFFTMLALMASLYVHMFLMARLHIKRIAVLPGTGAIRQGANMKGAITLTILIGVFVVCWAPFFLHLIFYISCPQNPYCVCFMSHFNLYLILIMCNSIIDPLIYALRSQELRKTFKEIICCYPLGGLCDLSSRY
Experimental: as §1

MC5 [3] = biological target: T3, MC5 (Homo sapiens, UniProt P33032); assay: Stimulation of cAMP, MC5; assay type: cell-based
T3 sequence (P33032 whole entry): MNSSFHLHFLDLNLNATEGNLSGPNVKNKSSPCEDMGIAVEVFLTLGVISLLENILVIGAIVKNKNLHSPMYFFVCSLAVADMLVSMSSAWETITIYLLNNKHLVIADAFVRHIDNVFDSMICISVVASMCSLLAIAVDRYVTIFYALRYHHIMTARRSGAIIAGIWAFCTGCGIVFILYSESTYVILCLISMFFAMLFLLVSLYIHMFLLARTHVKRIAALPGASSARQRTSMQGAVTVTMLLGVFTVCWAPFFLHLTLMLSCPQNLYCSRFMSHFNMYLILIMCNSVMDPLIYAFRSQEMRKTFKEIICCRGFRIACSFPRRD
Experimental: as §1

MC5 [4] = biological target: T3, MC5; assay: Affinity for the MC5-receptors, binding assay with I125-NDP-αMSH as ligand; settings: read-out: Affinity for MC-receptors Ki MC5
Experimental: (§2) Test 2. Affinity for the MC3-Receptors, the MC4-Receptors and the MC5-Receptors
(§3) The binding assays were carried out essentially as described by Szardenings et al, J Biol Chem 1997; 272; 27943-27948 and Schiöth et al, FEBS Lett 1997; 410; 223-228 using I^125-NDP-αMSH as ligand.

MC3 [5] = biological target: T1, MC3; assay: Affinity for the MC3-receptors, binding assay with I125-NDP-αMSH as ligand; settings: read-out: Affinity for MC-receptors Ki MC3
Experimental: as §2, §3

MC4 [6] = biological target: T2, MC4; assay: Affinity for the MC4-receptors, binding assay with I125-NDP-αMSH as ligand; settings: read-out: Affinity for MC-receptors Ki MC4
Experimental: as §2, §3

T1 sequence (P41968 whole entry): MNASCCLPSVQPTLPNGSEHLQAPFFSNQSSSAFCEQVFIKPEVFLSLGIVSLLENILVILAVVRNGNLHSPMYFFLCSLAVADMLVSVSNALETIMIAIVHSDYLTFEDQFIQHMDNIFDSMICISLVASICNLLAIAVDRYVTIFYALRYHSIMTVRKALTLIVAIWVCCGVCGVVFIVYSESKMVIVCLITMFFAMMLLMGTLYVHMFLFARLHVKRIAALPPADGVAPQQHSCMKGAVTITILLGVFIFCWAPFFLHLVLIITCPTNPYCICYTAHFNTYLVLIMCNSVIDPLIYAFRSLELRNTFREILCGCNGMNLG
MC1-Receptor, sequence (Q01727 whole entry): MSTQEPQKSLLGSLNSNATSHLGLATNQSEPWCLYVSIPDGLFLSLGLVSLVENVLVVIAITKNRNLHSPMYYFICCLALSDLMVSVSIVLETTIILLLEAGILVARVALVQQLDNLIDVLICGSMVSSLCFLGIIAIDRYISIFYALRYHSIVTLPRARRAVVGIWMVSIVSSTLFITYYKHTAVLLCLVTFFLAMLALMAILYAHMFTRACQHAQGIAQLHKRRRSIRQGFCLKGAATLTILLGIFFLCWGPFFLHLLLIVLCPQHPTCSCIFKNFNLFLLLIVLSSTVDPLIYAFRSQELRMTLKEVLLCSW

Compound	Influence on cAMP MC3c (MC3 [1])	Ki (MC1-Receptor)	Influence on cAMP MC1c (MC1)	Influence on cAMP MC4c (MC4 [2])	Influence on cAMP MC5c (MC5 [3])	Ki (MC5 [4])	Ki (MC3 [5])	Ki (MC4 [6])
CCOC(=O)c1cccc(C=NNC(=N)N)c1Cl.O=C(O)C(F)(F)F [1:3, N-(2-Chloro-(3-ethoxycarbonyl)-benzylideneamino)guanidine trifluoroacetate]	0	3.4 µM	0	7	0	–	–	–
CSc1c(Cl)cccc1C=NNC(=N)N.Cl [Compound 1:1, N-(2-Methylthio-3-chlorobenzylideneamino)guanidine hydrochloride]	2	0.7 µM	1	13	1	19.7 µM	19.7 µM	0.6 µM

From patent publication US8372878B2, “Aminoguanidines as melanocortin receptor ligands” (Anamar AB, priority 2006, dated 2013)
